Blank lines part the entries; values can stand above or below the compound they belong to.
How the values were obtained:
HsHAD [1] = biological target: T1, HsHAD (Homo sapiens, UniProt Q16836); assay: stopped-flow NADH fluorescence, koff/kon; assay type: binding
T1 construct: gene HADH; N-terminal His6 tag in pET28a, E. coli BL21(DE3) pLysS, dimer of 35 kDa subunits
T1 sequence (Q16836 13-314): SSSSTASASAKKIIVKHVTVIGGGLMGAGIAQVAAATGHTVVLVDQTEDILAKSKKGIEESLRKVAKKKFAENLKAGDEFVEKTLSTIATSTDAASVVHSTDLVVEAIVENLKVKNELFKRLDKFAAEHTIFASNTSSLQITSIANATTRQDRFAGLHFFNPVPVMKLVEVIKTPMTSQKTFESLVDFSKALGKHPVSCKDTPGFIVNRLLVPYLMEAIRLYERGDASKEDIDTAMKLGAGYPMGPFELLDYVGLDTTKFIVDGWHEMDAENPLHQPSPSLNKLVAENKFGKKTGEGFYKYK
Excerpt: stopped-flow NADH fluorescence, koff/kon on HsHAD

RnMFE1 [2] = biological target: T2, RnMFE1 (Rattus norvegicus, UniProt P07896, E123A); assay: stopped-flow NADH fluorescence, koff/kon; assay type: binding
T2 construct: gene Ehhadh
T2 sequence (P07896 whole entry E123A): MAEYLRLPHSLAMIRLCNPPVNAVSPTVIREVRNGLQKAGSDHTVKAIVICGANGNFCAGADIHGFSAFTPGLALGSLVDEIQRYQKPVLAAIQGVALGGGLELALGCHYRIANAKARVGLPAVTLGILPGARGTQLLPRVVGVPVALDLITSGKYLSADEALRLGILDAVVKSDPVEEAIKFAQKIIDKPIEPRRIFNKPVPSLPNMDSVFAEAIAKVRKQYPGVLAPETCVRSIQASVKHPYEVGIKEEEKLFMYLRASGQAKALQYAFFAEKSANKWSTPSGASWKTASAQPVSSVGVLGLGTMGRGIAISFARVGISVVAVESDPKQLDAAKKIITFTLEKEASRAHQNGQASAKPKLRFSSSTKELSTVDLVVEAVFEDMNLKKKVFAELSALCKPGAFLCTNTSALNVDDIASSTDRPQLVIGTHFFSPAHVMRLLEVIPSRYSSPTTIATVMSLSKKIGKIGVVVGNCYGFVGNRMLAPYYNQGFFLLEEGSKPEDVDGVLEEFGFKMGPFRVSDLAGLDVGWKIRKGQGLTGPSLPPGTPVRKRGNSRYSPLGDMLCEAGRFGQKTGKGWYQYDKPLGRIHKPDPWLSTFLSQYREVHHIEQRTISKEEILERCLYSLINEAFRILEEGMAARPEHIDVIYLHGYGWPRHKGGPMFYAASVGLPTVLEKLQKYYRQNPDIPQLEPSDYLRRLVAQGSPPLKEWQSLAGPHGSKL
Excerpt: (§1) stopped-flow NADH fluorescence, koff/kon on RnMFE1

RnMFE1 [3] = biological target: T3, RnMFE1 (Rattus norvegicus, UniProt P07896); assay: stopped-flow NADH fluorescence, koff/kon; assay type: binding
T3 construct: gene Ehhadh
T3 sequence (P07896 whole entry): as the sequence (P07896 whole entry E123A) above, with A123E counted along it
Excerpt: as §1

BCDE [4] = biological target: T4, BCDE (Rattus norvegicus, UniProt P07896); assay: stopped-flow NADH fluorescence, koff/kon; assay type: binding
T4 construct: gene Ehhadh; truncated RnMFE1 from Ala260 (ASGQ) to the C-terminus, without domain A (ECH part); N-terminal His6 tag, E. coli BL21(DE3) pLysS
T4 sequence (P07896 260-722): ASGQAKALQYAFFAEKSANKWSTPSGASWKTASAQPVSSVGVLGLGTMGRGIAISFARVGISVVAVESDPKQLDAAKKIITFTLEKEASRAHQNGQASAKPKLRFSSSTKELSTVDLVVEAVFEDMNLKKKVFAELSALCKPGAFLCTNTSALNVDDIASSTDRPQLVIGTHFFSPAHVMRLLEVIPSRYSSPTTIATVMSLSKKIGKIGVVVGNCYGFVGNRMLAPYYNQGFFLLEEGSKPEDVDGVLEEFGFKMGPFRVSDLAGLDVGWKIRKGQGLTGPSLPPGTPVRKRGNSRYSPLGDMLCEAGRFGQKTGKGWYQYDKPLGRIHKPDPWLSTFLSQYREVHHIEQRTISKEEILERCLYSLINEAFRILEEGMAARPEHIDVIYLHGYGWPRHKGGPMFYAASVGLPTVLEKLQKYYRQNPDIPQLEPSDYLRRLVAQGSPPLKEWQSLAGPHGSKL
Excerpt: stopped-flow NADH fluorescence, koff/kon on BCDE

BCDE [5] = biological target: T4, BCDE; assay: stopped-flow tryptophan fluorescence, koff/kon; assay type: binding
Excerpt: stopped-flow tryptophan fluorescence, koff/kon on BCDE

HsHAD [6] = biological target: T1, HsHAD; assay: stopped-flow tryptophan fluorescence, koff/kon; assay type: binding
Excerpt: stopped-flow tryptophan fluorescence, koff/kon on HsHAD

RnMFE1 [7] = biological target: T2, RnMFE1; assay: stopped-flow tryptophan fluorescence, koff/kon; assay type: binding
Excerpt: (§2) stopped-flow tryptophan fluorescence, koff/kon on RnMFE1

RnMFE1 [8] = biological target: T3, RnMFE1; assay: stopped-flow tryptophan fluorescence, koff/kon; assay type: binding
Excerpt: as §2

RnMFE1 [9] = biological target: T3, RnMFE1; assay: stopped-flow NADH formation, kobs vs substrate; assay type: biochemical; details: 1 mM NAD+, pH 9.0, 50 mM Tris, 50 mM KCl, room temperature; coupled ECH and HAD reactions of the same enzyme
Excerpt: stopped-flow NADH formation, kobs vs substrate on RnMFE1

Kd (HsHAD [1]): 7 µM | Kd (RnMFE1 [2]): 7.5 µM | Kd (RnMFE1 [3]): 5 µM | Kd (BCDE [4]): 5.7 µM
SMILES: NC(=O)C1=CN([C@@H]2O[C@H](COP(=O)(O)OP(=O)(O)OC[C@H]3O[C@@H](n4cnc5c(N)ncnc54)[C@H](O)[C@@H]3O)[C@@H](O)[C@H]2O)C=CC1 [NADH]

Kd (BCDE [5]): 7.5 µM | Kd (HsHAD [6]): 6 µM | Kd (RnMFE1 [7]): 8 µM | Kd (RnMFE1 [8]): 7.6 µM
SMILES: NC(=O)c1ccc[n+]([C@@H]2O[C@H](COP(=O)(O)OP(=O)(O)OC[C@H]3O[C@@H](n4cnc5c(N)ncnc54)[C@H](O)[C@@H]3O)[C@@H](O)[C@H]2O)c1 [NAD^+]

Kd (RnMFE1 [9]): 1.9 ± 0.1 µM
SMILES: C/C=C/C(=O)SCCNC(=O)CCNC(=O)[C@H](O)C(C)(C)COP(=O)(O)OP(=O)(O)OC[C@H]1O[C@@H](n2cnc3c(N)ncnc32)[C@H](O)[C@@H]1OP(=O)(O)O [2E‐butenoyl‐CoA]

— PMC10988713 (FEBS Open Bio, 2024)
